{
  "source": "paper PMC4150738",
  "about": "(Analytica chimica acta, 2014)",
  "key": {"[1]": {"conditions": "for plasma concentration, Without hydrolysis / plasma concentration, Hydrolysis: LOQ 0.25 μg L^−1; for plasma concentration, Hydrolysis: with hydrolysis"}, "[2]": {"experiment": "Short-term stability in fortified plasma", "format": "physicochemical, human"}, "[3]": {"conditions": "cited from earlier work"}, "[4]": {"conditions": "ref 24 (Wang et al), cited from earlier work"}, "[5]": {"conditions": "1,000 μg L^−1, room temp, 4°C and −20°C for 1 to 14 days; ref 29 (Johnson et al); cited from earlier work"}, "monoamine transporter": {"system": "monoamine transporter", "conditions": "in vitro transporter assays, similar to cocaine; ref 13 (Baumann et al.); cited from earlier work"}, "[6]": {"conditions": "ref 24 (Wang et al); cited from earlier work"}, "[7]": {"conditions": "rat plasma, 0.5 mg kg-1 MDPV ip, 10 min"}, "[8]": {"conditions": "rat plasma, 0.5 mg kg-1 MDPV ip, 20 min"}, "[9]": {"conditions": "rat plasma, 0.5 mg kg-1 MDPV ip, 30 min"}, "[10]": {"conditions": "rat plasma, 0.5 mg kg-1 MDPV ip, 60 min"}, "[11]": {"conditions": "rat plasma, 0.5 mg kg-1 MDPV ip, 120 min"}, "[12]": {"conditions": "rat plasma, 0.5 mg kg-1 MDPV ip, 240 min"}, "[13]": {"conditions": "rat plasma, 0.5 mg kg-1 MDPV ip, 480 min"}, "[14]": {"conditions": "rat plasma, 0.5 mg kg-1 MDPV sc, 10 min"}, "[15]": {"conditions": "rat plasma, 0.5 mg kg-1 MDPV sc, 20 min"}, "[16]": {"conditions": "rat plasma, 0.5 mg kg-1 MDPV sc, 30 min"}, "[17]": {"conditions": "rat plasma, 0.5 mg kg-1 MDPV sc, 60 min"}, "[18]": {"conditions": "rat plasma, 0.5 mg kg-1 MDPV sc, 120 min"}, "[19]": {"conditions": "rat plasma, 0.5 mg kg-1 MDPV sc, 240 min"}, "[20]": {"conditions": "rat plasma, 0.5 mg kg-1 MDPV sc, 480 min"}, "[21]": {"conditions": "High QC 750 μg L^−1, n=5, vs freshly fortified"}, "[22]": {"conditions": "Low QC 0.75 μg L^−1, n=5, vs freshly fortified"}, "[23]": {"conditions": "Medium QC 25 μg L^−1, n=5, vs freshly fortified"}},
  "note": "Like-named read-outs stand apart in the source and are kept apart here.",
  "data": [
    {"smiles": "CCCC(C(=O)c1ccc2c(c1)OCO2)N1CCCC1", "note": "(stereo not shown) [MDPV, 3,4-methylenedioxypyrovalerone, reference compound]", "values": [
      {"measurement": "change of plasma concentration without the deconjugation step (hydrolysis)", "setting": "[1]; rat plasma after 0.5 mg kg-1 MDPV ip or sc, with vs without hydrolysis", "value": "did not change"},
      {"measurement": "plasma concentration, Without hydrolysis", "setting": "[1]; rat plasma, 0.5 mg kg-1 MDPV ip, 0 min (before dosing)", "value": "<LOQ"},
      {"measurement": "plasma concentration, Hydrolysis", "setting": "[1]; [7]", "value": 8.0, "unit": "ng/mL"},
      {"measurement": "plasma concentration, Without hydrolysis", "setting": "[1]; [7]", "value": 9.4, "unit": "ng/mL"},
      {"measurement": "plasma concentration, Hydrolysis", "setting": "[1]; [8]", "value": 6.6, "unit": "ng/mL"},
      {"measurement": "plasma concentration, Without hydrolysis", "setting": "[1]; [8]", "value": 7.2, "unit": "ng/mL"},
      {"measurement": "plasma concentration, Hydrolysis", "setting": "[1]; [9]", "value": 7.6, "unit": "ng/mL"},
      {"measurement": "plasma concentration, Without hydrolysis", "setting": "[1]; [9]", "value": 8.4, "unit": "ng/mL"},
      {"measurement": "plasma concentration, Hydrolysis", "setting": "[1]; [10]", "value": 3.6, "unit": "ng/mL"},
      {"measurement": "plasma concentration, Without hydrolysis", "setting": "[1]; [10]", "value": 2.9, "unit": "ng/mL"},
      {"measurement": "plasma concentration, Hydrolysis", "setting": "[1]; [11]", "value": 1.8, "unit": "ng/mL"},
      {"measurement": "plasma concentration, Without hydrolysis", "setting": "[1]; [11]", "value": 2.2, "unit": "ng/mL"},
      {"measurement": "plasma concentration, Hydrolysis", "setting": "[1]; [12]", "value": 1.3, "unit": "ng/mL"},
      {"measurement": "plasma concentration, Without hydrolysis", "setting": "[1]; [12]", "value": 0.6, "unit": "ng/mL"},
      {"measurement": "plasma concentration, Hydrolysis", "setting": "[1]; [13]", "value": 0.9, "unit": "ng/mL"},
      {"measurement": "plasma concentration, Without hydrolysis", "setting": "[1]; [13]", "value": 1.2, "unit": "ng/mL"},
      {"measurement": "plasma concentration, Without hydrolysis", "setting": "[1]; rat plasma, 0.5 mg kg-1 MDPV sc, 0 min (before dosing)", "value": "<LOQ"},
      {"measurement": "plasma concentration, Hydrolysis", "setting": "[1]; [14]", "value": 107.5, "unit": "ng/mL"},
      {"measurement": "plasma concentration, Without hydrolysis", "setting": "[1]; [14]", "value": 120.1, "unit": "ng/mL"},
      {"measurement": "plasma concentration, Hydrolysis", "setting": "[1]; [15]", "value": 82.1, "unit": "ng/mL"},
      {"measurement": "plasma concentration, Without hydrolysis", "setting": "[1]; [15]", "value": 92.9, "unit": "ng/mL"},
      {"measurement": "plasma concentration, Hydrolysis", "setting": "[1]; [16]", "value": 51.7, "unit": "ng/mL"},
      {"measurement": "plasma concentration, Without hydrolysis", "setting": "[1]; [16]", "value": 56.6, "unit": "ng/mL"},
      {"measurement": "plasma concentration, Hydrolysis", "setting": "[1]; [17]", "value": 38.4, "unit": "ng/mL"},
      {"measurement": "plasma concentration, Without hydrolysis", "setting": "[1]; [17]", "value": 34, "unit": "ng/mL"},
      {"measurement": "plasma concentration, Hydrolysis", "setting": "[1]; [18]", "value": 9.9, "unit": "ng/mL"},
      {"measurement": "plasma concentration, Without hydrolysis", "setting": "[1]; [18]", "value": 1.5, "unit": "ng/mL"},
      {"measurement": "plasma concentration, Hydrolysis", "setting": "[1]; [19]", "value": 4.8, "unit": "ng/mL"},
      {"measurement": "plasma concentration, Without hydrolysis", "setting": "[1]; [19]", "value": 3.1, "unit": "ng/mL"},
      {"measurement": "plasma concentration, Hydrolysis", "setting": "[1]; [20]", "value": 1.7, "unit": "ng/mL"},
      {"measurement": "plasma concentration, Without hydrolysis", "setting": "[1]; [20]", "value": 1.4, "unit": "ng/mL"},
      {"measurement": "plasma concentration range after intraperitoneal dosing", "setting": "[1]; rat plasma, 0.5 mg kg^−1 MDPV intraperitoneal, samples 10-480 min after dosing", "value": "0.9 to 8.0", "unit": "ng/mL"},
      {"measurement": "plasma concentration range after the subcutaneous dose", "setting": "[1]; rat plasma, 0.5 mg kg^−1 MDPV subcutaneous, samples 10-480 min after dosing", "value": "1.7 to 107.5", "unit": "ng/mL"},
      {"measurement": "Stability (% difference) 3 freeze-thaw cycles", "setting": "[2]; [21]", "value": 1.5, "unit": "% difference"},
      {"measurement": "Stability (% difference) 72h at 4°C", "setting": "[2]; [21]", "value": 3.5, "unit": "% difference"},
      {"measurement": "Stability (% difference) 3 freeze-thaw cycles", "setting": "[2]; [22]", "value": 3.5, "unit": "% difference"},
      {"measurement": "Stability (% difference) 72h at 4°C", "setting": "[2]; [22]", "value": 7.7, "unit": "% difference"},
      {"measurement": "Stability (% difference) 3 freeze-thaw cycles", "setting": "[2]; [23]", "value": "−1.1", "unit": "% difference"},
      {"measurement": "Stability (% difference) 72h at 4°C", "setting": "[2]; [23]", "value": 2.2, "unit": "% difference"},
      {"measurement": "MDPV blood concentrations, human performance cases", "setting": "[3]; 9 human performance cases, ref 26 (Marinetti et al.)", "value": "6 to 368", "unit": "µg/L"},
      {"measurement": "MDPV blood concentrations, postmortem cases", "setting": "[3]; 23 postmortem cases, ref 26 (Marinetti et al.)", "value": "10 to 640", "unit": "µg/L"},
      {"measurement": "serum MDPV concentrations", "setting": "[3]; Finnish drivers stopped for suspicion of driving under the influence of drugs, ref 25 (Kriikku et al.)", "value": "20 to 8000", "unit": "µg/L"},
      {"measurement": "MDPV concentrations in human plasma, in most cases", "setting": "[3]", "value": "below 1000 μg L^−1"},
      {"measurement": "stability of MDPV in plasma, time stable", "setting": "[4]; at room temperature", "value": 27, "unit": "h"},
      {"measurement": "stability of MDPV in plasma, time stable", "setting": "[4]; at −20°C", "value": 600, "unit": "h"},
      {"measurement": "stability of MDPV in plasma, freeze-thaw cycles", "setting": "[4]", "value": 3, "unit": "freeze-thaw cycles"},
      {"measurement": "stability in fortified plasma", "setting": "[5]", "value": "stable"},
      {"measurement": "monoamine transporter blockade", "setting": "monoamine transporter", "value": "potent monoamine transporter blocker"},
      {"measurement": "concentration in plasma, horse-doping", "setting": "[6]", "value": 5.8, "unit": "ng/mL"}
    ]}
  ]
}
